How the values were obtained:
Type in all cases: in vivo
[1] = system: Random Hooded rats; experiment: Rat Model of Joint Pain (intra-articular FCA, weight bearing); conditions: oral; for ED50: FCA (i.art) weight bearing, read-out: ED50 obtained from Area Under the Curve (AUC) calculations; for reversal of FCA (i.art)-induced difference in weight bearing compared to vehicle response: twice daily for 5 days, normally 13-17 days post surgery
Protocol: By measuring hypersensitivity post intra-articular injection of FCA into the knee, the effectiveness of a potential analgesic in reversing FCA-induced hypersensitivity can be assessed in a joint pain model of chronic inflammatory pain. Adult male Random Hooded rats (150-180 g) from Charles River, UK were briefly anaesthetised with isoflurane (3%). Rats were then injected with 150 μl of Freund's complete adjuvant (FCA) into the left knee joint (intra-articularly, i.art). The ability to bear weight on each hindlimb (weight bearing, g) was measured prior to and following surgery using a Dual Channel Weight Averager (Linton Instruments). When a stable difference in weight bearing was established between the injected and contralateral paws, rats were typically dosed orally (normally 13-17 days post surgery) with compound twice daily for 5 days with weight bearing measurements recorded daily.

[2] = system: Random Hooded rats; experiment: Rat Model of Acute Inflammatory Pain (intraplantar FCA, weight bearing); conditions: oral; for reversal of FCA (i.pl)-induced difference in weight bearing compared to vehicle response: 24 hours after FCA injection; for ED50: FCA (i.pl) weight bearing, read-out: ED50 obtained from dose response curves
Protocol: Rat Model of Acute Inflammatory Pain
A useful animal model for acute inflammatory pain is the Freund's Complete Adjuvant (FCA)-induced inflammation model. A similar model using carrageenan rather than FCA is described by Clayton et al. in Br. J. Pharmacol. 1997; 120, 219P. Adult male Random Hooded rats (180-220 g) from Charles River, UK received an intraplantar (i.pl) injection of 100 μl of FCA into the plantar surface of the left hind paw. The ability to bear weight on each hindlimb (weight bearing g) was measured prior to and 24 hours after the FCA injection using a Dual Channel Weight Averager (Linton Instruments). After the post-FCA reading, rats were typically dosed orally with compound after which weight bearing measurements were recorded.

[3] = system: Random Hooded rats; experiment: Rat Model of Neuropathic Pain (sciatic nerve ligatures, Von Frey mechanical allodynia); conditions: oral, twice daily for 8 days, 26-33 days post surgery
From the text: Rat Model of Neuropathic Pain
By placing loosely constrictive ligatures around the common sciatic nerve, a peripheral mononeuropathy can be produced, which thereby provides a rat model of neuropathic pain, Bennet et al., Pain, Vol. 33, pp 87-107 (1988). Adult male Random Hooded rats (180-200 g) from Charles River, UK were anaesthetised with isoflurane (3%). The sciatic nerve in the left leg was exposed at mid thigh level and 4 loose ligatures of Chromic 4.0 gut tied around the nerve as described by Bennet et al., Pain, Vol. 33, pp 87-107 (1988). The wound was closed and secured with staples. Sham rats underwent the same procedure but loose ligatures were not applied. The presence of mechanical (tactile) allodynia was assessed using manual application of Von Frey hair monofilaments. Monofilaments were applied in ascending order to the plantar region of the hind paw (range: 1.4 g-26 g). Each hair was applied for approx. 3-5 seconds until a paw withdrawal response was observed. After confirmation with reapplication of lower and/or higher hairs, the lowest hair to give a paw withdrawal was recorded as the threshold response (g). When stable allodynia was established rats were dosed orally 26-33 days post surgery with compound twice daily for 8 days with allodynia measurements recorded at least three times during the dosing period.

Structure (SMILES)	ED50 [1] [mg/kg]	reversal of FCA (i.art)-induced difference in weight bearing compared to vehicle response [1]	reversal of FCA (i.pl)-induced difference in weight bearing compared to vehicle response [2]	ED50 [2] [mg/kg]	reversal of CCl-induced mechanical allodynia compared to vehicle response [3]
CN1C(=O)CC[C@H]1C(=O)NCc1cccc(C(F)(F)F)c1Cl [Example E51, N-{[2-chloro-3-(trifluoromethyl)phenyl]methyl}-1-methyl-5-oxoprolinamide]	< 20	significantly reversed	significantly reversed	< 20	significantly reversed
CN1C(=O)CC[C@H]1C(=O)NCc1ccc(Cl)cc1Cl [Example E10, N-[(2,4-dichlorophenyl)methyl]-1-methyl-5-oxo-prolinamide]	< 20	significantly reversed	significantly reversed	< 20	significantly reversed

From US7718693B2, “Receptor antagonists and their methods of use” (Glaxo Group Limited, priority 2006, dated 2010)
